Results published in patent US20230398135A1, “COMPOSITIONS INCLUDING CANNABINOID AND USE THEREOF IN THE MANUFACTURE OF A MEDICAMENT FOR THE TREATMENT OF INFLAMMATION IN A SUBJECT” (priority 2022, published 2023).

Legend:
COX-2 [1] = biological target: T1, COX-2 (Homo sapiens, UniProt P35354); assay: fluorometric COX-2 inhibition assay (Cayman Chemical kit); assay type: biochemical; settings: for inhibition at 50 µM: read-out: COX-2 Inhibition (%); for COX-2 inhibition corresponding to plateau (FIGS. 3A, 3B): after molar concentrations exceeded 10 μM; for COX-2 inhibitory effect (FIG. 1): used individually at 50 μM, 10 μM, 2 μM, 0.04 μM
T1 construct: purchased BioVision Inc. (Mountain View, CA, USA)
T1 sequence (P35354 18-604): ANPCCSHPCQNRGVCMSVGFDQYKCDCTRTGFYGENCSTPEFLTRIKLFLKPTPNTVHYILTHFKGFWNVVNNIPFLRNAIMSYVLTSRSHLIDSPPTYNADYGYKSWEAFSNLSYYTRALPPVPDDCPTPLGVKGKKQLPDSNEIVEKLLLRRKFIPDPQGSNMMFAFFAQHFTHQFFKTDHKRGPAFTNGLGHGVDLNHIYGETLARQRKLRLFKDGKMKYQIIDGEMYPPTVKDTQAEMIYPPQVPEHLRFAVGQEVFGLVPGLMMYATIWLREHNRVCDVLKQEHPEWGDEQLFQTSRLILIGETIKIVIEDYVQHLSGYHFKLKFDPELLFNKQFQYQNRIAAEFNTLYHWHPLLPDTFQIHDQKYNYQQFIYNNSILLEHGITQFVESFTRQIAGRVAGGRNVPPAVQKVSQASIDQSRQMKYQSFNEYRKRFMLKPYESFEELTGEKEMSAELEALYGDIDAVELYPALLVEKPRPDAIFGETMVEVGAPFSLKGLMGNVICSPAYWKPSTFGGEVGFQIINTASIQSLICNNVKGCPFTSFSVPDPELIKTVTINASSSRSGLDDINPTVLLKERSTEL
Description: FIG. 1 is a bar diagram illustrating COX-2 inhibitory effects of CBD and CBG used individually at different molar concentrations according to some embodiments of the present disclosure. Table 1 illustrates COX-2 inhibitory effects of some skincare active components used individually according to some embodiments of the present disclosure. The COX-2 inhibitory effects in FIG. 1 and Table 1 were determined using a fluorometric COX-2 inhibition kit from Cayman Chemical Company (Ann Arbor, Michigan, USA) according to the method of COX-2 inhibition assay as described elsewhere in the present disclosure.
Table 2 illustrates COX-2 inhibitory effects of exemplary compositions of CBD and CBG according to some embodiments of the present disclosure. The COX-2 inhibitory effects in Table 2 were determined using a fluorometric COX-2 inhibition kit from Cayman Chemical Company (Ann Arbor, Michigan, USA) according to the method of COX-2 inhibition assay as described elsewhere in the present disclosure. The compositions A, B, and C in Table 2 may be at 10 μM.
FIG. 2 is a bar diagram illustrating COX-2 inhibitory effects of CBD and CBG used individually and in combination at different molar concentrations according to some embodiments of the present disclosure. The COX-2 inhibitory effects in FIG. 1 and Table 1 were determined using a fluorometric COX-2 inhibition kit from Cayman Chemical Company (Ann Arbor, Michigan, USA) according to the method of COX-2 inhibition assay as described in the present disclosure. In FIG. 2. COMIX represents a composition (or mixture) of CBD, CBG, NMN, BAK, AGE Defense, and RC Bio. Concentrations of CBD, CBG, NMN, BAK, AGE Defense, and RC Bio in COMIX were 10 ug/mL, 2 ug/mL, 2 ug/mL, 2 ug/mL, 2 ug/mL, and 2 ug/mL, respectively. The COX-2 inhibitory effect of COMIX was measured for providing an assay basis for designing subsequent COX-2 inhibition assays. MIX′ represents a composition (or mixture) of CBD and CBG at a molar concentration ratio of 1:1. […] When a total CBD/CBG molar concentration of MIX′ was 0.5 μM, molar concentrations of CBD and CBG in MIX′ were 0.25 μM. Similarly, when a total CBD/CBG molar concentration of MIX′ was 1.0 μM, molar concentrations of CBD and CBG in MIX′were 0.5 μM; when a total CBD/CBG molar concentration of MIX′ was 5 μM, molar concentrations of CBD and CBG in MIX were 2.5 μM; when a total CBD/CBG molar concentration of MIX′ was 10 μM, molar concentrations of CBD and CBG in MIX′ were 5 μM; and when a total CBD/CBG molar concentration of MIX′ was 20 μM, molar concentrations of CBD and CBG in MIX′ were 10.0 μM.
(§1) Materials and methods: the inhibitory effects of test samples (e.g., CBD, CBG, BAK, Mix, a positive control, and/or other compounds and compositions described in the present disclosure) against COX-2 were measured by a fluorometric COX-2 inhibition kit from Cayman Chemicals (Ann Arbor, Michigan, USA) or BioVision Inc. (Mountain View, CA, USA) following the manufacturer's instructions. Briefly, a COX-2 enzyme was reconstituted with 110 μL of sterile distilled H2O and arachidonic acid was dissolved in 55 μL ethanol. COX cofactor was diluted with COX assay buffer for 200 times, and arachidonic acid and NaOH were mixed in a molar ratio of 1:1 before it was diluted for 10 times for further use. COX assay buffer (84 μL), COX probe (1 μL), diluted COX cofactor (2 μL), COX-2 enzyme (1 μL), and test samples (2 μL) were incubated in a 96-well plate at room temperature for 10 min. Next, diluted arachidonic acid/NaOH solution (10 μL) was added to each well of the 96-well plate to initiate the reaction.

TNF-α = assay: suppression of TNF-α in inflammatory model induced by lipopolysaccharides and nigericin; assay type: cell-based; settings: 20 μM; LPS and nigericin model
Description: (§2) FIGS. 7 and 8 are bar diagrams illustrating exemplary abilities of CBG, BAK, and a composition (i.e., Mix) of CBD, CBG, and BAK at a molar concentration of 1:1:1 to suppress activities of pro-inflammatory cytokines according to some embodiments of the present disclosure. In FIGS. 7 and 8, Model represents an inflammatory model that was induced by lipopolysaccharides and nigericin. The abilities/functions of CBG, BAK, and Mix to suppress pro-inflammatory cytokines in FIGS. 7 and 8 were measured at a total CBD/CBG/BAK molar concentration of 20 μM. An ability/function to suppress activity of a pro-inflammatory cytokine was reflected by a remaining concentration of the pro-inflammatory cytokine after the reaction. The greater the remaining concentration of the pro-inflammatory cytokine, the worse the ability to suppress activity of the pro-inflammatory cytokine.

[2] = antioxidant DPPH assay (free radical scavenging); settings: used individually
Description: In some embodiments, the composition may have an antioxidant activity/effect. FIG. 10 is a bar diagram illustrating antioxidant effects of CBD, CBG, and BAK used individually according to some embodiments of the present disclosure. In some embodiments, data in the bar diagram in FIG. 10 was determined (e.g., measured) according to an antioxidant DPPH (i.e., α, α-diphenyl-β-picrylhydrazyl) assay that was well known for the skills in the art. An antioxidant effect was reflected by free radical scavenging after the reaction. The greater the free radical scavenging, the better the antioxidant effect.

COX-2 [3] = biological target: T1, COX-2; assay: fluorometric COX-2 inhibition assay (BioVision kit); assay type: biochemical; settings: for COX-2 inhibitory effect compared with personal care ingredients (terpenes): all at 50 μM, FIGS. 4-6; for inhibition at 10 µM / inhibition at 50 µM: read-out: COX-2 Inhibition (%); for inhibition at 12.5 µM: read-out: COX-2 inhibitions (FIG. 5)
Description: The COX-2 inhibitory effects in FIGS. 4-6 were determined using a fluorometric COX-2 inhibition kit from BioVision Inc. (Mountain View, CA, USA) according to the methods described in COX-2 inhibition assay. The personal care ingredients Lim, Lin, Ner, Myc, α-pin, β-car, and α-bis represent limonene, linalool, nerolidol, myrcene, alpha-pinene, beta-caryophyllene, and alpha-bisabolol, respectively. In FIGS. 5 and 6, MIX represents a composition (or mixture) of CBD, CBG, and BAK at a molar concentration ratio of 1:1:1. MIX 50 μM, MIX 25 μM, and 12.5 μM represent total CBD/CBG/BAK molar concentrations of MIX being 50 μM, 25 μM, and 12.5 μM, respectively. CBD 50 μM represents that CBD is used individually and a molar concentration of CBD is 50 μM.
as §1, with “reaction. The fluorescence of each well was recorded at an excitation wavelength of 535 nm and an emission wavelength of 587 nm with a kinetic mode for 10 min using a plate reader (SpectraMax® M2, Molecular Devices Corp., operated by SoftmaxPro® v.4.6 software, Sunnyvale, CA, USA). […] Two points (T1 and T2) in a linear range of a plot related to the recorded fluorescence were used to obtain corresponding fluorescence values (RFU1 and RFU2). Then, a slope for a sample was calculated by dividing a net ΔRFU (RFU2-RFU1) value by the time ΔT (T2-T1). An inhibition (%) of COX-2 of the sample was determined as the following equation: Inhibition (%)=((slope of control−slope of the sample)/slope of control)×100.” for “reaction.”

IL-1β = assay: suppression of IL-1β in inflammatory model, cell level; assay type: cell-based; settings: 20 μM; LPS and nigericin model
Description: as §2
FIG. 9 is a bar diagram illustrating exemplary abilities of a composition (i.e., Mix) of CBD, CBG, and BAK at a molar concentration of 1:1:1 at different molar concentrations to suppress activity of […] according to some embodiments of the present disclosure. In FIG. 9, Model represents an inflammatory model which was different from that in FIG. 8. […]

Structure (SMILES)	inhibition at 50 µM (COX-2 [1]) [%]	remaining concentration of TNF-α versus Model (FIG. 7) (TNF-α)	antioxidant effect compared with the other compounds (FIG. 10) [2]	antioxidant effect, free radical scavenging (FIG. 10) [2]	COX-2 inhibitory effect compared with personal care ingredients (terpenes) (COX-2 [3])	inhibition at 10 µM (COX-2 [3]) [%]	inhibition at 50 µM (COX-2 [3]) [%]	inhibition at 12.5 µM (COX-2 [3]) [%]	remaining concentration of IL-1β versus Model (FIG. 8) (IL-1β)	COX-2 inhibition corresponding to plateau (FIGS. 3A, 3B) (COX-2 [1])	COX-2 inhibitory effect (FIG. 1) (COX-2 [1])	COX-2 Inhibition (%) (COX-2 [1]; compound used individually at 50 μM)
C=C[C@@](C)(/C=C/c1ccc(O)cc1)CCC=C(C)C [BAK, bakuchiol]	81.9	lower than the remaining concentration of TNF-α corresponding to Model	better antioxidant effect than CBG and CBG	had an antioxidant effect	better COX-2 inhibitory effects than the personal care ingredients	45	67.3	~60	had an activity to suppress activity of IL-113			
C=C(C)[C@@H]1CCC(C)=C[C@H]1c1c(O)cc(CCCCC)cc1O [CBD, cannabidiol, reference compound]	71.9			had an antioxidant effect	better COX-2 inhibitory effects than the personal care ingredients	42	52.5	~60		about 60%	had a COX-2 inhibitory effect	
CCCCCc1cc(O)c(C/C=C(\C)CCC=C(C)C)c(O)c1 [CBG, cannabigerol]	87.4	lower than the remaining concentration of TNF-α corresponding to Model		had an antioxidant effect	better COX-2 inhibitory effects than the personal care ingredients	51.9	65.7	~60	had an activity to suppress activity of IL-113	about 60%	had a COX-2 inhibitory effect	
Cn1c(=O)c2c(ncn2C)n(C)c1=O [Caffeine, caffeine, reference compound]	63.5											
NC(=O)c1ccc[n+]([C@@H]2O[C@H](COP(=O)([O-])O)[C@@H](O)[C@H]2O)c1 [NMN, nicotinamide mononucleotide]												19.63
